The conditions of data set [1]: solid amlodipine free base; Int. J. of Pharmaceutics 133, 71-83 (1996); cited from earlier work.
A short description of data set [2]: Stickiness comparison (average punch residue of tablets). It is filed as physicochemical. The note with it: tablets with microcrystalline cellulose and calcium sulphate dihydrate, 20 mm punch, 400 mg tablet, slope over runs of 50-300 tablets. The protocol:
An amlodpine free base tablet according to the present invention is preferably a low punch residue tablet. A “low punch residue” as used herein means that the average amount of amlodipine left on a tablet punch is not more than 1 μg/cm^2 per tablet based on a 20 mm round flat punch with a compression force of 15 kilo-newtons. Preferably, the tablet has an average punch residue of 0.7 μg/cm^2 per tablet, more preferably 0.6 μg/cm^2 per tablet. The amount of amlodipine residue can be measured by the process described in EP 244 944. In general the method involves washing the punch after runs of 50, 100, 150, 200, 250 and 300 tablets, using methanol and an ultrasonic bath. The amount of amlodipine in the samples is measured by uv and the total amount of amlodipine extracted from both the upper and lower punch is plotted against the amount of tablets made. An average value for amlodipine residue (stickiness) is calculated from the slope of the regression line by forcing the y-intercept of the line through zero.
After 50 tablets, the tablet material was extracted from the punches using methanol and an ultrasonic bath. […] The extracts together with Amlodipine calibration samples were measured spectrometrically. […] An average value for stickiness was calculated from the slope of the regression line by forcing the y-intercept of the line through zero.

The nature of data set [3]: Solid-state stability of crystalline Form II on standing. It is filed as physicochemical. The note with it: after 1 month standing at 60° C. The protocol:
The amlodipine free base can be of any form including crystalline form I, crystalline form II or amorphous. […] This form corresponds to the material described by […] and Deasy. […] Although it is possible to convert Form II into Form I by applying sufficiently high temperatures, generally over 100 C., Form II is generally stable at ambient conditions and even at moderately elevated temperatures. For instance, the Form II is stable after 1 month standing at 60° C. Accordingly, Form II is thus useful in manufacturing of pharmaceutical final forms. The amlodipine free base in the tablet of the present invention can be of a single type or can be a mixture. For example, a mixture of crystalline Forms I and II.

In brackets after ≈: the same amount, converted by molar mass.

Regarding `CCOC(=O)C1=C(COCCN)NC(C)=C(C(=O)OC)C1c1ccccc1Cl` (stereo not shown) [amlodipine free base, 2-[(2-aminoethoxy)methyl]-4-(2-chlorophenyl)-3-ethoxycarbonyl-5-methoxycarbonyl-6-methyl-1,4-dihydropyridine], the aqueous solubility (in general, how much of the substance goes into solution per volume) in data set [1] was 77.4 µg/mL (≈ 189 µM). Moreover, in data set [2] (listed as Amlodipine base), the “Average residue (stickiness)” value is listed as 0.55 μg ADP.cm^−2.tablet^−1.
`CCOC(=O)C1=C(COCCN)NC(C)=C(C(=O)OC)C1c1ccccc1Cl` (stereo not shown) [Form II]: in data set [3], the “stability of crystalline form” value was “stable”.
With `CCOC(=O)C1=C(COCCN)NC(C)=C(C(=O)OC)C1c1ccccc1Cl` (stereo not shown) [amlodipine besylate], the “Average residue (stickiness)” value in data set [2] came out at 1.16 μg ADP.cm^−2.tablet^−1.
